Source: patent publication US6369236B1, “Imidazole derivatives with biphenylsulfonyl substitution method for preparing them and their use as a drug or diagnostic agent” (Aventis Pharma Deutschland GmbH, priority 1998, dated 2002)

Tests used:
[1] = test system: Na+-dependent Cl-/HCO3- exchanger (NCBE); experiment: Inhibition of the Na+-dependent Cl-/HCO3- exchanger (NCBE) in human endothelial cells (BCECF fluorescence, FLIPR, pHi recovery); assay type: cell-based; details: inhibitor concentration 10 μM; human endothelial cells (ECV-304); 50 μM HOE 642 present; 35° C., 2 minutes
Description: Inhibition of the Na^+-dependent Cl^−/HCO3^− Exchanger (NCBE) in Human Endothelial Cells
Human endothelial cells (ECV-304) were detached from culture bottles with the aid of trypsin/EDTA buffer (0.05/0.02% in phosphate buffer) and, after centrifugation (100 g, 5 min), taken up in a buffered salt solution (mmol/l: 115 NaCl, 20 NH4Cl, 5 KCl, 1 CaCl2, 1 MgSO4, 20 N-(2-hydroxyethyl)piperazine-N-2-ethanesulfonic acid (HEPES), 5 glucose and 1 g/l of bovine serum albumin; pH 7.4). This cell suspension was incubated at 37° C. for 20 min with 5 μM BCECF-acetoxymethyl ester. The cells were then washed and resuspended in a sodium- and bicarbonate-free buffer solution (mmol/l: 5 HEPES, 133.8 choline chloride, 4.7 KCl, 1.25 MgCl2, 0.97 K2HPO4, 0.23 KH2PO4, 5 glucose; pH 7.4).
For subsequent fluorescence measurement in an FLIPR (Fluorescent Imaging Plate Reader) 100 μl of this cell suspension having 20,000 cells in each case were pipetted per well into a 96-well microtiter plate and this microtiter plate was centrifuged (100 g, 5 min).
In the FLIPR, 100 μl of buffer solution in each case were then removed from a further pretreated microtiter plate and pipetted into each of the 96 wells of the measurement plate. A bicarbonate- and sodium-containing buffer solution (mmol/l: 5 HEPES, 93.8 NaCl, 40 NaHCO3, 4.7 KCl, 1.25 CaCl2, 1.25 MgCl2, 0.97 Na2HPO4, 0.23 NaH2PO4, 5 glucose; pH 7.4) which contained 50 μM HOE 642 was used for a 100% control, i.e. a recovery of the intracellular pH (pHi) via the NCBE. For a 0% control, i.e. no pHi recovery at all, a bicarbonate-free, sodium-containing buffer solution (mmol/l: 5 HEPES, 133.8 NaCl, 4.7 KCl, 1.25 CaCl2, 1.25 MgCl2, 0.97 Na2HPO4, 0.23 NaH2PO4, 5 glucose; pH 7.4) was employed, to which 50 μM HOE 642 were likewise added. The compounds according to the invention were added to the sodium- and bicarbonate-containing solution in various concentrations.
After addition of the buffer solutions to the dye-loaded, acidified cells in the measurement plate, the rise in the fluorescence intensity, which corresponded to a rise in the pHi, in each well of the microtiter plate was determined. The kinetics were in this case recorded at 35° C. for a period of 2 minutes.
The increase in the fluorescence intensities for different concentrations of the compounds according to the invention was related to the two controls and from this the inhibitory action of the substances was determined.

Row | melting point | Structure (SMILES) | Residual activity of the NCBE at an inhibitor concentration of 10 μM (in %) [1] [%]
1 | > 270 °C | COCCOc1nc(-c2ccccc2)n(Cc2ccc(-c3ccccc3S(=O)(=O)NC#N)cc2S(C)(=O)=O)c1C=O [Example 1, 4′-[5-Formyl-4-(2-methoxyethoxy)-2-phenylimidazol-1-ylmethyl]-3′-methanesulfonylbiphenyl-2-sulfonylcyanamide] | 9.8
2 | 195 °C (dec.) | COCCOc1nc(-c2ccccc2)n(Cc2ccc(-c3ccccc3S(=O)(=O)NC#N)cc2Cl)c1C=O [Example 2, 3′-Chloro-4′-[5-formyl-4-(2-methoxyethoxy)-2-phenylimidazol-1-ylmethyl]-biphenyl-2-sulfonylcyanamide] | 18.9
3 |  | COCCOc1nc(-c2ccc(C(C)C)cc2)n(Cc2ccc(-c3ccccc3S(=O)(=O)NC#N)cc2)c1C=O [Example 3, 4′-[5-Formyl-2-(4-isopropylphenyl)-4-(2-methoxyethoxy)imidazol-1-ylmethyl]biphenyl-2-sulfonylcyanamide] | 29.6
4 | 162 °C | COCCOc1cc(-c2ccccc2S(=O)(=O)NC#N)ccc1Cn1c(-c2ccccc2)nc(OCCOC)c1C=O [Example 4, 4′-[5-Formyl-4-(2-methoxyethoxy)-2-phenylimidazol-1-ylmethyl]-3′-(2-methoxyethoxy)biphenyl-2-sulfonylcyanamide] | 13.5
